This note sets out measurements from patent EP0565377B1, “Therapeutic agents for use in the treatment of Parkinson's Disease” (Kyowa Hakko Kogyo Co., Ltd., priority 1992, dated 1993).

The subject of this series is dd-strain male mice. Kind of series: Acute toxicity test (minimum lethal dose, oral). The format is in vivo. Conditions: oral administration, mortality seven days after administration, three mice per group. The method, then:
Test compounds were orally administered to groups of dd-strain male mice weighing 20±1 g, each group consisting of three mice. Seven days after the administration, minimum lethal dose (MLD) of each compound was determined by observing the mortality.
With `CCCn1c(=O)c2c(nc(/C=C/c3ccc(OC)c4ccccc34)n2C)n(CCC)c1=O` [Compound 62, (E)-8-[2-(4-methoxynaphthyl)vinyl]-7-methyl-1,3-dipropylxanthine], the “MLD” value was > 100 mg/kg.
For `CCCn1c(=O)c2c(nc(/C=C/c3cccc(F)c3)n2C)n(CCC)c1=O` [Compound 37, (E)-8-(3-fluorostyryl)-7-methyl-1,3-dipropylxanthine] the value was > 100 mg/kg; for `CCCn1c(=O)c2[nH]c(/C=C/c3ccc(OC)c4ccccc34)nc2n(CCC)c1=O` [Compound 61, (E)-8-[2-(4-methoxynaphthyl)vinyl]-1,3-dipropylxanthine], > 100 mg/kg; for `CCCn1c(=O)c2c(nc(/C=C/c3cccc(Cl)c3)n2C)n(CCC)c1=O` [Compound 39, (E)-8-(3-chlorostyryl)-7-methyl-1,3-dipropylxanthine], > 100 mg/kg.
The value for `CCCn1c(=O)c2c(nc(/C=C/c3cc(Br)c(OC)c(OC)c3)n2C)n(CCC)c1=O` [Compound 60, (E)-8-(3-bromo-4,5-dimethoxystyryl)-7-methyl-1,3-dipropylxanthine] was > 100 mg/kg.
For `CCCn1c(=O)c2[nH]c(/C=C/c3ccc(OC)c(C)c3OC)nc2n(CCC)c1=O` [Compound 14, (E)-8-(2,4-dimethoxy-3-methylstyryl)-1,3-dipropylxanthine] the value was > 100 mg/kg.
For `CCCOc1ccc(/C=C/c2nc3c([nH]2)c(=O)n(CCC)c(=O)n3CCC)cc1` [Compound 49, (E)-8-(4-propoxystyryl)-1,3-dipropylxanthine], the “MLD” value is reported as > 100 mg/kg.
The value for `CCCn1c(=O)c2[nH]c(/C=C/c3ccc(C)c(C)c3)nc2n(CCC)c1=O` [Compound 30, (E)-8-(3,4-dimethylstyryl)-1,3-dipropylxanthine] was > 100 mg/kg; that for `CCCn1c(=O)c2c(nc(/C=C\c3ccc(OC)c(OC)c3)n2C)n(CCC)c1=O` [Compound 46, (Z)-8-(3,4-dimethoxystyryl)-7-methyl-1,3-dipropylxanthine] was > 300 mg/kg.
Regarding `CCCCOc1ccc(/C=C/c2nc3c(c(=O)n(CCC)c(=O)n3CCC)n2C)cc1` [Compound 52, (E)-8-(4-butoxystyryl)-7-methyl-1,3-dipropylxanthine], the “MLD” value was > 100 mg/kg.
The value for `CCCn1c(=O)c2c(nc(/C=C/c3ccccc3F)n2C)n(CCC)c1=O` [Compound 43, (E)-8-(2-fluorostyryl)-7-methyl-1,3-dipropylxanthine] was > 100 mg/kg; that for `CCCn1c(=O)c2[nH]c(/C=C/c3cc(OC)c(OCc4ccccc4)c(OC)c3)nc2n(CCC)c1=O` [Compound 26, (E)-8-(4-benzyloxy-3,5-dimethoxystyryl)-1,3-dipropylxanthine] was > 100 mg/kg.
For `CCCn1c(=O)c2c(nc(/C=C/c3cc(OC)c(OCc4ccccc4)c(OC)c3)n2C)n(CCC)c1=O` [Compound 27, (E)-8-(4-benzyloxy-3,5-dimethoxystyryl)-7-methyl-1,3-dipropylxanthine] the value was > 100 mg/kg; for `CCCn1c(=O)c2nc(/C=C/c3cccc(Cl)c3)[nH]c2n(CCC)c1=O` [Compound 38, (E)-8-(3-chlorostyryl)-1,3-dipropylxanthine], > 100 mg/kg; for `CCCn1c(=O)c2[nH]c(/C=C/c3cccc(OC)c3OC)nc2n(CCC)c1=O` [Compound 28, (E)-8-(2,3-dimethoxystyryl)-1,3-dipropylxanthine], > 100 mg/kg.
For `CCCn1c(=O)c2c(nc(/C=C/c3ccccc3Cl)n2C)n(CCC)c1=O` [Compound 41, (E)-8-(2-chlorostyryl)-7-methyl-1,3-dipropylxanthine] the value was > 100 mg/kg; for `CCCn1c(=O)c2nc(/C=C/c3cc(OC)c(OC)cc3OC)[nH]c2n(CCC)c1=O` [Compound 22, (E)-1,3-dipropyl-8-(2,4,5-trimethoxystyryl)-xanthine], > 300 mg/kg; for `CCCn1c(=O)c2c(nc(/C=C/c3ccc4c(c3)OCCO4)n2C)n(CCC)c1=O` [Compound 17, (E)-8-[2-(1,4-benzodioxan-6-yl)vinyl]-7-methyl-1,3-dipropylxanthine], > 300 mg/kg.
Regarding `CCCn1c(=O)c2[nH]c(/C=C/c3ccc(OC)c(C)c3C)nc2n(CCC)c1=O` [Compound 12, (E)-8-(4-methoxy-2,3-dimethylstyryl)-1,3-dipropylxanthine], the “MLD” value was > 300 mg/kg.
For `CCCn1c(=O)c2c(nc(/C=C/c3ccc(OC)c(OC)c3OC)n2C)n(CCC)c1=O` [Compound 21, (E)-7-methyl-1,3-dipropyl-8-(2,3,4-trimethoxystyryl)xanthine] the value was > 300 mg/kg; for `CCCn1c(=O)c2[nH]c(/C=C/c3ccccc3F)nc2n(CCC)c1=O` [Compound 42, (E)-8-(2-fluorostyryl)-1,3-dipropylxanthine], > 100 mg/kg; for `CCCn1c(=O)c2[nH]c(/C=C/c3ccccc3Cl)nc2n(CCC)c1=O` [Compound 40, (E)-8-(2-chlorostyryl)-1,3-dipropylxanthine], > 100 mg/kg.
For `CCCn1c(=O)c2c(nc(/C=C/c3cc(OC)cc(OC)c3)n2C)n(CCC)c1=O` [Compound 33, (E)-8-(3,5-dimethoxystyryl)-7-methyl-1,3-dipropylxanthine] the value was > 100 mg/kg.
For `CCCn1c(=O)c2[nH]c(/C=C/c3ccc(OC)c(Br)c3)nc2n(CCC)c1=O` [Compound 55, (E)-8-(3-bromo-4-methoxystyryl)-1,3-dipropylxanthine] the value was > 100 mg/kg.
Regarding `CCCn1c(=O)c2[nH]c(/C=C/c3ccc(OCC)cc3)nc2n(CCC)c1=O` [Compound 47, (E)-8-(4-ethoxystyryl)-1,3-dipropylxanthine], the “MLD” value is on record as > 100 mg/kg.
For `CCCn1c(=O)c2[nH]c(/C=C/c3cc(OC)c(OC)cc3Br)nc2n(CCC)c1=O` [Compound 57, (E)-8-(2-bromo-4,5-dimethoxystyryl)-1,3-dipropylxanthine], the “MLD” value was > 300 mg/kg.
For `CCCn1c(=O)c2c(nc(/C=C/c3ccc(OCC)c(OCC)c3)n2C)n(CCC)c1=O` [Compound 54, (E)-8-(3,4-diethoxystyryl)-7-methyl-1,3-dipropylxanthine] the value was > 100 mg/kg.
The value for `CCCn1c(=O)c2[nH]c(/C=C/c3cc(C)c(OC)cc3C)nc2n(CCC)c1=O` [Compound 44, (E)-8-(4-methoxy-2,5-dimethylstyryl)-1,3-dipropylxanthine] was > 300 mg/kg.
For `CCCn1c(=O)c2c(nc(/C=C/c3cccc(OC)c3OC)n2C)n(CCC)c1=O` [Compound 29, (E)-8-(2,3-dimethoxystyryl)-7-methyl-1,3-dipropylxanthine] the value was > 300 mg/kg; for `CCCCOc1ccc(/C=C/c2nc3c([nH]2)c(=O)n(CCC)c(=O)n3CCC)cc1` [Compound 51, (E)-8-(4-butoxystyryl)-1,3-dipropylxanthine], > 100 mg/kg.
For the compound `CCCn1c(=O)c2[nH]c(/C=C/c3cccc([N+](=O)[O-])c3)nc2n(CCC)c1=O` [Compound 34, (E)-8-(3-nitrostyryl)-1,3-dipropylxanthine], the “MLD” value was > 100 mg/kg.
For `CCCn1c(=O)c2c(nc(/C=C/c3cc(OC)c(OC)cc3Br)n2C)n(CCC)c1=O` [Compound 58, (E)-8-(2-bromo-4,5-dimethoxystyryl)-7-methyl-1,3-dipropylxanthine] the value was > 300 mg/kg; for `CCCn1c(=O)c2c(nc(/C=C/c3ccc(OC)c(Br)c3)n2C)n(CCC)c1=O` [Compound 56, (E)-8-(3-bromo-4-methoxystyryl)-7-methyl-1,3-dipropylxanthine], > 100 mg/kg.
On to `CCCn1c(=O)c2c(nc(/C=C/c3ccc(OC)c(O)c3)n2C)n(CCC)c1=O` [Compound 63, (E)-8-(3-hydroxy-4-methoxystyryl)-7-methyl-1,3-dipropylxanthine], for which the “MLD” value is reported as > 100 mg/kg.
The value for `CCCn1c(=O)c2nc(/C=C/c3cc(OC)cc(OC)c3)[nH]c2n(CCC)c1=O` [Compound 32, (E)-8-(3,5-dimethoxystyryl)-1,3-dipropylxanthine] was > 100 mg/kg; that for `CCCn1c(=O)c2c(nc(/C=C/c3cccc([N+](=O)[O-])c3)n2C)n(CCC)c1=O` [Compound 35, (E)-7-methyl-8-(3-nitrostyryl)-1,3-dipropylxanthine] was > 100 mg/kg.
The value for `CCCn1c(=O)c2c(nc(/C=C/c3cc(C)c(OC)cc3C)n2C)n(CCC)c1=O` [Compound 45, (E)-8-(4-methoxy-2,5-dimethylstyryl)-7-methyl-1,3-dipropylxanthine] was > 300 mg/kg; that for `CCCn1c(=O)c2nc(/C=C/c3cccc(F)c3)[nH]c2n(CCC)c1=O` [Compound 36, (E)-8-(3-fluorostyryl)-1,3-dipropylxanthine] was > 100 mg/kg.
